In patent publication US10246453B2, “Benzenesulfonamide compounds and their use as therapeutic agents” (Xenon Pharmaceuticals Inc., priority 2016, dated 2019):
Where a name gives a salt, the structure may show the parent alone.

Experiments:
NaV1.5 = NaV1.5 (Homo sapiens (Human), UniProt Q14524); test: Sodium Influx Assay (Flux), NaV1.5; settings: read-out: Flux NaV1.5 IC50; Trex HEK293 cells, ANG2 dye; arithmetic mean
NaV1.6 = NaV1.6 (Homo sapiens (Human), UniProt Q9UQD0); test: Sodium Influx Assay (Flux), NaV1.6; settings: read-out: Flux NaV1.6 IC50; Trex HEK293 cells, ANG2 dye; arithmetic mean
NaV1.1 = NaV1.1 (Homo sapiens (Human), UniProt P35498); test: Sodium Influx Assay (Flux), NaV1.1; format: cell-based; settings: Trex HEK293 cells, ANG2 dye; arithmetic mean

Sequence of NaV1.5 (Q14524 other isoform, or with tags, fused parts or gaps): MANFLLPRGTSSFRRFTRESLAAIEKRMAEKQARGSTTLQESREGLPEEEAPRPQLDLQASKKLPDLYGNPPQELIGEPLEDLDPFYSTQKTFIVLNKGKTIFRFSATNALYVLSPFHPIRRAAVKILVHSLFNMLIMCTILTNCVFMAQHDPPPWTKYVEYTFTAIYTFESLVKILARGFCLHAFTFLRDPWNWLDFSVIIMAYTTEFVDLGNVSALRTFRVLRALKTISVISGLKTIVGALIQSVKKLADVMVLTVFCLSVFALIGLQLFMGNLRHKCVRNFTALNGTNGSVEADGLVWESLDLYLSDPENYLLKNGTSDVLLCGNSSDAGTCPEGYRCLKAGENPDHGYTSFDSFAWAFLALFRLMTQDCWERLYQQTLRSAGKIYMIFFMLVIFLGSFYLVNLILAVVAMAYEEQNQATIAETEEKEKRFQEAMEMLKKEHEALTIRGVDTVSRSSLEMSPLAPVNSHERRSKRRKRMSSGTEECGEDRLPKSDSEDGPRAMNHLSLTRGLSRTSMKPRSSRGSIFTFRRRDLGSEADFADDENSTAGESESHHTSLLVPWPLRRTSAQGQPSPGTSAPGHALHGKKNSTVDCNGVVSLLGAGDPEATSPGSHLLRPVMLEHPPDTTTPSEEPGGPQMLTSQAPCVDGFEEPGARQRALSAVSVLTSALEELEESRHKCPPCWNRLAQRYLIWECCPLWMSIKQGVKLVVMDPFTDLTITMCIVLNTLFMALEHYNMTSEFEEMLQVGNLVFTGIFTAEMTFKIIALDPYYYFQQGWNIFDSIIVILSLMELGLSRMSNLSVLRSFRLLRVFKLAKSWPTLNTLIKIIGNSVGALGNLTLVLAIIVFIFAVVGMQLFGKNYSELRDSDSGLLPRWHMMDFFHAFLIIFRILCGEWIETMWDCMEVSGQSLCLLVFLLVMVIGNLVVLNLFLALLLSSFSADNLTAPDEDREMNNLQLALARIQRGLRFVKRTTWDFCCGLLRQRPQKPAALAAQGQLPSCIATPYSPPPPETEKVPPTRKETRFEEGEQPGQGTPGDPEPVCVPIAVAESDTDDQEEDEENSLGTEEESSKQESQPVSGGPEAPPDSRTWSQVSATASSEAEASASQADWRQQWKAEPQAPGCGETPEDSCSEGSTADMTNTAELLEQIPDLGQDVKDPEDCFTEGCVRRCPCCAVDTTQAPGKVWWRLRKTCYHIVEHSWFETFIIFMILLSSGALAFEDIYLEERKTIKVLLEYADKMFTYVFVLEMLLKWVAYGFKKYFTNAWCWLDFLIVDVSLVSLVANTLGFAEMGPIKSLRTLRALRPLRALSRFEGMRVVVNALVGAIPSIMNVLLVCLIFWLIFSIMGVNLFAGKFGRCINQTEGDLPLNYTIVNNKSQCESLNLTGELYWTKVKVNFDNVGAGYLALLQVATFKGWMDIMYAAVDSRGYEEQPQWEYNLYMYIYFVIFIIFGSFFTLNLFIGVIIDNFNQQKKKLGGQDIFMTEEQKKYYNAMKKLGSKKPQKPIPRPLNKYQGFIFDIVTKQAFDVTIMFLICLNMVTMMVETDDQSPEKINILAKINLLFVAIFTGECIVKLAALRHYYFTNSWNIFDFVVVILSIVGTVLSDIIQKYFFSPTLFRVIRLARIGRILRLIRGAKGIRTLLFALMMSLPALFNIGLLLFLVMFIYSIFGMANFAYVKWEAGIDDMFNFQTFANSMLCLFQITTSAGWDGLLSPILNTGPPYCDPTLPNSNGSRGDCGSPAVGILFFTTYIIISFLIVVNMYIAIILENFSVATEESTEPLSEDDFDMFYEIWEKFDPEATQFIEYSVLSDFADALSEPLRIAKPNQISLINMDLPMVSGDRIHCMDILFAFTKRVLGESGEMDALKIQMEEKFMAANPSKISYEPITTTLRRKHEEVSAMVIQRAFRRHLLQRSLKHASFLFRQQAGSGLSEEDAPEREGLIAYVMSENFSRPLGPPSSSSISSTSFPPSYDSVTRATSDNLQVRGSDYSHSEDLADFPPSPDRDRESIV

Structure (SMILES)	IC50 (NaV1.5) [µM]	IC50 (NaV1.6) [µM]	IC50 (NaV1.1) [µM]
Cc1ccc(CN2CCC(Oc3ccc(S(=O)(=O)Nc4nccs4)cc3Cl)CC2)cc1C [Example 93, 3-chloro-4-(1-(3,4-dimethylbenzyl)piperidin-4-yloxy)-N-(thiazol-2-yl)benzenesulfonamide]	12.5	3.62	12.6
Cc1cc(C)cc(CN2CCC(Oc3ccc(S(=O)(=O)Nc4nccs4)cc3Cl)CC2)c1 [Example 94, 3-chloro-4-(1-(3,5-dimethylbenzyl)piperidin-4-yloxy)-N-(thiazol-2-yl)benzenesulfonamide]	7.62	3.44	11.4
O=S(=O)(Nc1ncns1)c1ccc(O[C@@H]2CCN(Cc3ccccc3)C2)c(Cl)c1 [Example 96, (R)-4-(1-benzylpyrrolidin-3-yloxy)-3-chloro-N-(1,2,4-thiadiazol-5-yl)benzenesulfonamide 2,2,2-trifluoroacetate]	> 30	11.9	25.7
Cc1cc(C)cc(CN2CC[C@@H](Oc3ccc(S(=O)(=O)Nc4ncns4)cc3Cl)C2)c1 [Example 98, (R)-3-chloro-4-(1-(3,5-dimethylbenzyl)pyrrolidin-3-yloxy)-N-(1,2,4-thiadiazol-5-yl)benzenesulfonamide 2,2,2-trifluoroacetate]	> 30	7.53	21.9
Cc1cc(S(=O)(=O)Nc2cscn2)c(F)cc1N(C)[C@H]1CCN(Cc2csc(C(C)C)n2)C1 [Example 107, (S)-2-fluoro-4-((1-((2-isopropylthiazol-4-yl)methyl)pyrrolidin-3-yl)(methyl)amino)-5-methyl-N-(thiazol-4-yl)benzenesulfonamide 2,2,2-trifluoroacetate]	9.6	0.049	4.1
Cc1cc(S(=O)(=O)Nc2cscn2)c(F)cc1N(C)[C@H]1CCN(Cc2ccnn2CC(F)(F)F)C1 [Example 108, (S)-2-fluoro-5-methyl-4-(methyl(1-((1-(2,2,2-trifluoroethyl)-1H-pyrazol-5-yl)methyl)pyrrolidin-3-yl)amino)-N-(thiazol-4-yl)benzenesulfonamide]	> 30	5.49	12.5
Cc1cc(S(=O)(=O)Nc2cscn2)c(F)cc1N(C)[C@H]1CCN([C@H]2C[C@@H](c3ccccc3)C2)C1 [Example 109, 2-fluoro-5-methyl-4-(methyl((S)-1-((1s,3R)-3-phenylcyclobutyl)-pyrrolidin-3-yl)amino)-N-(thiazol-4-yl)benzenesulfonamide formate]	2.8	1.11	1.99
Cc1nc(CN2CC[C@H](N(C)c3cc(F)c(S(=O)(=O)Nc4cscn4)cc3C)C2)cs1 [Example 110, (S)-2-fluoro-5-methyl-4-(methyl(1-((2-methylthiazol-4-yl)methyl)pyrrolidin-3-yl)amino)-N-(thiazol-4-yl)benzenesulfonamide formate]	> 30	0.262	> 30
Cc1cc(S(=O)(=O)Nc2cscn2)c(F)cc1N(C)[C@H]1CCN(Cc2ccn(C)n2)C1 [Example 111, (S)-2-fluoro-5-methyl-4-(methyl(1-((1-methyl-1H-pyrazol-3-yl)methyl)pyrrolidin-3-yl)amino)-N-(thiazol-4-yl)benzenesulfonamide formate]	> 30	0.763	> 30
Cc1cc(S(=O)(=O)Nc2cscn2)c(F)cc1N(C)[C@H]1CCN(Cc2ccccc2C(F)F)C1 [Example 112, (S)-4-((1-(2-(difluoromethyl)benzyl)-pyrrolidin-3-yl)(methyl)amino)-2-fluoro-5-methyl-N-(thiazol-4-yl)benzenesulfonamide]	8.19	0.773	4.6
Cc1cc(S(=O)(=O)Nc2cscn2)c(F)cc1N(C)[C@H]1CCN(Cc2cccc(O)c2)C1 [Example 114, (S)-2-fluoro-4-((1-(3-hydroxybenzyl)-pyrrolidin-3-yl)(methyl)amino)-5-methyl-N-(thiazol-4-yl)benzenesulfonamide]	> 30	2.25	25.9
Cc1cc(S(=O)(=O)Nc2cscn2)c(F)cc1N(C)[C@H]1CCN(CCc2ccccc2)C1 [Example 115, (S)-2-fluoro-5-methyl-4-(methyl(1-phenethylpyrrolidin-3-yl)amino)-N-(thiazol-4-yl)benzenesulfonamide]	19.3	1.6	6.75
Cc1cc(S(=O)(=O)Nc2cscn2)c(F)cc1N(C)[C@H]1CCN(Cc2ncccc2OC(C)C)C1 [Example 116, (S)-2-fluoro-4-((1-((3-isopropoxypyridin-2-yl)methyl)pyrrolidin-3-yl)(methyl)amino)-5-methyl-N-(thiazol-4-yl)benzenesulfonamide formate]	> 30	0.529	29.3
Cc1cc(S(=O)(=O)Nc2cscn2)c(F)cc1N(C)[C@H]1CCN([C@H]2C[C@H](c3ccccc3)C2)C1 [Example 117, 2-fluoro-5-methyl-4-(methyl((S)-1-((1r,3S)-3-phenylcyclobutyl)-pyrrolidin-3-yl)amino)-N-(thiazol-4-yl)benzenesulfonamide formate]	3.09	1.45	2.26
Cc1cc(S(=O)(=O)Nc2cscn2)c(F)cc1N(C)[C@H]1CCN(Cc2ccn(CC(F)(F)F)n2)C1 [Example 118, (S)-2-fluoro-5-methyl-4-(methyl(1-((1-(2,2,2-trifluoroethyl)-1H-pyrazol-3-yl)methyl)pyrrolidin-3-yl)amino)-N-(thiazol-4-yl)benzenesulfonamide]	> 30	0.058	12.9
COc1ccccc1CN1CC[C@H](N(C)c2cc(F)c(S(=O)(=O)Nc3cscn3)cc2C)C1 [Example 119, (S)-2-fluoro-4-((1-(2-methoxybenzyl)-pyrrolidin-3-yl)(methyl)amino)-5-methyl-N-(thiazol-4-yl)benzenesulfonamide formate]	20.2	0.368	28.8
COc1cccnc1CN1CC[C@H](N(C)c2cc(F)c(S(=O)(=O)Nc3cscn3)cc2C)C1 [Example 120, (S)-2-fluoro-4-((1-((3-methoxypyridin-2-yl)methyl)pyrrolidin-3-yl)(methyl)amino)-5-methyl-N-(thiazol-4-yl)benzenesulfonamide formate]	22.9	0.39	> 30
Cc1cc(CN2CC[C@H](N(C)c3cc(F)c(S(=O)(=O)Nc4cscn4)cc3C)C2)ns1 [Example 121, (S)-2-fluoro-5-methyl-4-(methyl(1-((5-methylisothiazol-3-yl)methyl)pyrrolidin-3-yl)amino)-N-(thiazol-4-yl)benzenesulfonamide formate]	> 30	1.47	> 30
Cc1cc(S(=O)(=O)Nc2cscn2)c(F)cc1N(C)[C@H]1CCN(Cc2cc3ccccn3n2)C1 [Example 122, (S)-2-fluoro-5-methyl-4-(methyl(1-(pyrazolo[1,5-a]pyridin-2-ylmethyl)pyrrolidin-3-yl)amino)-N-(thiazol-4-yl)benzenesulfonamide]	24.2	1.72	26.9
Cc1cc(S(=O)(=O)Nc2cscn2)c(F)cc1N(C)[C@H]1CCN(CC2CCCCC2)C1 [Example 123, (S)-4-((1-(cyclohexylmethyl)-pyrrolidin-3-yl)(methyl)amino)-2-fluoro-5-methyl-N-(thiazol-4-yl)benzenesulfonamide]	> 30	4	7.48
Cc1cc(S(=O)(=O)Nc2cscn2)c(F)cc1N(C)[C@H]1CCN(CC(C)(C)C)C1 [Example 124, (S)-2-fluoro-5-methyl-4-(methyl(1-neopentylpyrrolidin-3-yl)amino)-N-(thiazol-4-yl)benzenesulfonamide formate]	> 30	9.92	> 30
Cc1cc(S(=O)(=O)Nc2cscn2)c(F)cc1N(C)[C@H]1CCN(CCC(C)(C)C)C1 [Example 125, (S)-4-((1-(3,3-dimethylbutyl)-pyrrolidin-3-yl)(methyl)amino)-2-fluoro-5-methyl-N-(thiazol-4-yl)benzenesulfonamide formate]	> 30	2.32	14.7
Cc1cc(S(=O)(=O)Nc2cscn2)c(F)cc1N(C)[C@H]1CCN(Cc2ccc(O)cc2)C1 [Example 126, (S)-2-fluoro-4-((1-(4-hydroxybenzyl)-pyrrolidin-3-yl)(methyl)amino)-5-methyl-N-(thiazol-4-yl)benzenesulfonamide]	> 30	4.52	> 30
Cc1cc(S(=O)(=O)Nc2cscn2)c(F)cc1N(C)[C@H]1CCN(Cc2cccc(C)c2F)C1 [Example 127, (S)-2-fluoro-4-((1-(2-fluoro-3-methylbenzyl)pyrrolidin-3-yl)(methyl)amino)-5-methyl-N-(thiazol-4-yl)benzenesulfonamide 2,2,2-trifluoroacetate]	10.1	0.52	10.7
Cc1cc(S(=O)(=O)Nc2cscn2)c(F)cc1N(C)[C@H]1CCN([C@H]2CCc3ccccc32)C1 [Example 128, 4-(((S)-1-((S)-2,3-dihydro-1H-inden-1-yl)pyrrolidin-3-yl)(methyl)amino)-2-fluoro-5-methyl-N-(thiazol-4-yl)benzenesulfonamide]	22.5	0.185	> 30
Cc1csc(CN2CC[C@H](N(C)c3cc(F)c(S(=O)(=O)Nc4cscn4)cc3C)C2)n1 [Example 129, (S)-2-fluoro-5-methyl-4-(methyl(1-((4-methylthiazol-2-yl)methyl)pyrrolidin-3-yl)amino)-N-(thiazol-4-yl)benzenesulfonamide]	> 30	0.828	> 30
